# Experimental data taken from patent US20100009950A1, “SUBSTITUTED ETHANOLAMINES” (AUSPEX PHARMACEUTICALS, INC., priority 2008, published 2010).
# Conditions: mark in second data column (bin 0%-50%); 1 mg per mL liver microsome protein, 1 μM, 37° C.; vs non-isotopically enriched compound
substance,measurement,value
N-(2-Hydroxy-2-(4-hydroxy-3-(hydroxymethyl)phenyl)ethyl)-6-(4-d3-phenyl-d8-butoxy)hexan-1-d2-aminium 1-hydroxy-2-naphthoate [Example 5],% increase of HLM degradation half-life,+ (0%-50%)
